For this test, the system named is liver. Nature of the test: Liver thermogenesis in AKR mice with IR transparent adhesive. Format: in vivo. The settings on record: AKR mice on high-fat diet, 75 mg/kg i.g., 5 hours. The procedure:
FIG. 31. Liver thermogenesis in AKR mice 5 hours after treatment with the nucleoside reverse transcriptase inhibitor (NRTI) D4T detected by IR thermography. Male AKR mice were housed 5 per cage and maintained on high fat diet (58% kCals as fat) and water ad libitum. Mice were dosed at 0, 1, 10, 75, and 100 mg/kg D4T in water vehicle (0.5 mL i.g.; n=10 per dose) and anesthetized using isoflurane as described above 5 hours after treatment. The abdomens of the anesthetized mice were surgically opened to expose the liver and Bioclusive adhesive was placed over the entire exposed area. IR images of the liver region were acquired and analyzed as detailed in FIG. 28. […] Quantification of the IR signal depicted in the image is shown in the bottom left panel. Analysis of the dose response to D4T is shown in the panel to the right. Data shown are means±SEM for n=10 animals per group.
AKR mice fed a high-fat diet were treated with 75 mg/kg D4T, and their abdomens were surgically opened and covered with Bioclusive adhesive 5 hour later. […] This decrease is quantitated in the lower left panel of FIG. 31. Moreover, the dose-dependent effect of D4T on decreased liver temperature determined using IR thermography (FIG. 31, right panel) correlated well with the effect of D4T treatment on serum non-esterified fatty acid levels (r=0.91, data not shown).

Each structure is given as a SMILES string.

Take `Cc1cn([C@H]2C=C[C@@H](CO)O2)c(=O)[nH]c1=O` [D4T]: the liver temperature entry is given as “decrease in temperature”.

The record behind these values is patent publication US6881584B1, “Infrared thermography” (SmithKline Beecham Corporation, priority 1998, dated 2005).
